Experimental data taken from patent publication US12433903B2 (priority 2021, dated 2025).
“And” between values parts separate entries of the source, which are not always exact repeats. Equal values may be shown once.

Tests used:
[1] = Quantification of CBG and CBG glucuronide in rat plasma and brain after oral gavage; format: in vivo, Sprague-Dawley rat; conditions: for CBG concentration in rat plasma (Day 21) / CBG concentration in rat brain tissue (Day 21) / CBG concentration in rat plasma (Day 1): individual rats; for CBG concentration in rat brain tissue (Day 21) / CBG concentration in rat brain tissue (Day 21), Average: 24 hrs post Rx
Procedure: The purpose of this study was to quantify cannabigerol (CBG) in rat plasma and brain.
Seven- to nine-week-old male and female Sprague-Dawley received either a single dose or once daily dosing for 21 clays of vehicle or CBG at three different dosage levels as shown in the Table below.
Approximately 0.2-0.25 mL blood was collected during the first 24 hours after the single dose, and at multiple times points after the terminal dose for the animals receiving daily dosing for 21 days. Liver, kidney, and colon samples were collected and fixed in 10% NBF for 48 hours, then stored in 70% ethanol at room temperature. Brain samples were collected and flash frozen.
Analytical curves were constructed using non-zero standards with CBG concentration ranging from 0.0025 to 2.500 μg/mL and […] in blank rat plasma samples and 1.0 to 2500 ng/mL in blank brain tissues. A blank sample was used to exclude contamination.
Instrument Used: AB SCIEX QTRAP 4500/Shimadzu Prominence LC

[2] = system: cryopreserved hepatocytes; test: Hepatocyte stability and metabolite profiling, human; format: in vitro ADME; conditions: human hepatocyte samples, 40 and 60 minute
Procedure: (§1) The objective of this study was to investigate the stability of the test compound, CBG, in human, rat, dog, mouse, monkey and minipig cryopreserved hepatocytes. Follow-on metabolite profiling was performed.
(§2) CBG was incubated up to 2 hr with cryopreserved hepatocytes. Cryopreserved hepatocytes in suspension were added to test compound in supplemented media following pre-incubation to initiate the reaction and the reactions were stopped by organic solvent at the appropriate time points. The termination plates were centrifuged and sample supernatants were analysed using Cyprotex generic LC MS/MS conditions to generate intrinsic clearance values for CBG. Two control compounds for each species were included in the assay and if the values for these compounds were not within the specified limits the results were rejected and the experiment repeated.
(§3) Following the hepatocyte stability assay the samples were 59 tilized for metabolite profiling using suitable high-resolution LC-MS/MS conditions. The 40 and 60 minute human samples, 20 and 120 minute rat samples, 10 and 20 minute dog and monkey samples, 20 and 60 minute mouse samples, and 40 and 120 minute minipig samples were compared against the 0 minute control sample to establish which and how many metabolites were formed. […]
(§4) The areas and percentages reported for the parent and metabolites were calculated using the XIC data. […]

[3] = system: cryopreserved hepatocytes; test: Hepatocyte stability and metabolite profiling, rat; format: in vitro ADME; conditions: rat hepatocyte samples, 20 and 120 minute
Procedure: as §1, §2, §3, §4

## CCCCCc1cc(O)c(C/C=C(\C)CCC=C(C)C)c(O)c1 [CBG, cannabigerol]
[1]; CBG 10 mg/kg oral gavage once daily, 15 min post Rx
  CBG concentration in rat plasma (Day 21): BLQ (Below Limit of Quantification (2.5 ng/mL))
[1]; CBG 10 mg/kg oral gavage once daily, 30 min post Rx
  CBG concentration in rat plasma (Day 21): BLQ (Below Limit of Quantification (2.5 ng/mL))
[1]; CBG 10 mg/kg oral gavage once daily, 1 hr post Rx
  CBG concentration in rat plasma (Day 21): BLQ (Below Limit of Quantification (2.5 ng/mL)) (4×) and 1.67 ng/mL and 2.75 ng/mL
[1]; CBG 10 mg/kg oral gavage once daily, 2 hr post Rx
  CBG concentration in rat plasma (Day 21): BLQ (Below Limit of Quantification (2.5 ng/mL)) (3×) and 5.6 ng/mL and 9.5 ng/mL and 2.72 ng/mL
[1]; CBG 10 mg/kg oral gavage once daily, 4 hr post Rx
  CBG concentration in rat plasma (Day 21): BLQ (Below Limit of Quantification (2.5 ng/mL)) (4×) and 4.73 ng/mL and 8.49 ng/mL
[1]; CBG 10 mg/kg oral gavage once daily, 8 hr post Rx
  CBG concentration in rat plasma (Day 21): BLQ (Below Limit of Quantification (2.5 ng/mL)) (4×) and 2.55 ng/mL and 4.18 ng/mL
[1]; CBG 10 mg/kg oral gavage once daily, 24 hr post Rx
  CBG concentration in rat plasma (Day 21): BLQ (Below Limit of Quantification (2.5 ng/mL))
[1]; CBG 10 mg/kg oral gavage once daily
  CBG concentration in rat brain tissue (Day 21): BLQ (Below Limit of Quantification (1.0 ng/g))
[1]; CBG 10 mg/kg oral gavage once, 15 min post Rx
  CBG concentration in rat plasma (Day 1): BLQ (Below Limit of Quantification (2.5 ng/mL))
[1]; CBG 10 mg/kg oral gavage once, 30 min post Rx
  CBG concentration in rat plasma (Day 1): BLQ (Below Limit of Quantification (2.5 ng/mL))
[1]; CBG 10 mg/kg oral gavage once, 1 hr post Rx
  CBG concentration in rat plasma (Day 1): 5.3 ng/mL and BLQ (Below Limit of Quantification (2.5 ng/mL)) (2×) and 18.6 ng/mL and 7.3 ng/mL
[1]; CBG 10 mg/kg oral gavage once, 2 hr post Rx
  CBG concentration in rat plasma (Day 1): 10.7 ng/mL and BLQ (Below Limit of Quantification (2.5 ng/mL)) and 14.6 ng/mL and 11.5 ng/mL and 12.0 ng/mL
[1]; CBG 10 mg/kg oral gavage once, 4 hr post Rx
  CBG concentration in rat plasma (Day 1): BLQ (Below Limit of Quantification (2.5 ng/mL))
[1]; CBG 10 mg/kg oral gavage once, 8 hr post Rx
  CBG concentration in rat plasma (Day 1): BLQ (Below Limit of Quantification (2.5 ng/mL))
[1]; CBG 10 mg/kg oral gavage once, 24 hr post Rx
  CBG concentration in rat plasma (Day 1): BLQ (Below Limit of Quantification (2.5 ng/mL))
[1]; CBG 30 mg/kg oral gavage once daily, 15 min post Rx
  CBG concentration in rat plasma (Day 21): BLQ (Below Limit of Quantification (2.5 ng/mL)) (3×) and 14.7 ng/mL and 4.51 ng/mL and 9.12 ng/mL
[1]; CBG 30 mg/kg oral gavage once daily, 30 min post Rx
  CBG concentration in rat plasma (Day 21): BLQ (Below Limit of Quantification (2.5 ng/mL))
[1]; CBG 30 mg/kg oral gavage once daily, 1 hr post Rx
  CBG concentration in rat plasma (Day 21): BLQ (Below Limit of Quantification (2.5 ng/mL))
[1]; CBG 30 mg/kg oral gavage once daily, 2 hr post Rx
  CBG concentration in rat plasma (Day 21): BLQ (Below Limit of Quantification (2.5 ng/mL))
[1]; CBG 30 mg/kg oral gavage once daily, 4 hr post Rx
  CBG concentration in rat plasma (Day 21): BLQ (Below Limit of Quantification (2.5 ng/mL))
[1]; CBG 30 mg/kg oral gavage once daily, 8 hr post Rx
  CBG concentration in rat plasma (Day 21): BLQ (Below Limit of Quantification (2.5 ng/mL))
[1]; CBG 30 mg/kg oral gavage once daily, 24 hr post Rx
  CBG concentration in rat plasma (Day 21): BLQ (Below Limit of Quantification (2.5 ng/mL))
[1]; CBG 30 mg/kg oral gavage once daily
  CBG concentration in rat brain tissue (Day 21): BLQ (Below Limit of Quantification (1.0 ng/g)) (5×) and 43.8 ng/g
[1]; CBG 30 mg/kg oral gavage once, 15 min post Rx
  CBG concentration in rat plasma (Day 1): 3.8 ng/mL and 7.6 ng/mL and BLQ (Below Limit of Quantification (2.5 ng/mL)) (4×)
[1]; CBG 30 mg/kg oral gavage once, 30 min post Rx
  CBG concentration in rat plasma (Day 1): 15.2 ng/mL and BLQ (Below Limit of Quantification (2.5 ng/mL)) (5×)
[1]; CBG 30 mg/kg oral gavage once, 1 hr post Rx
  CBG concentration in rat plasma (Day 1): 22.9 ng/mL and 32.3 ng/mL and 32.5 ng/mL and 1.08 ng/mL and 31.2 ng/mL and 35.9 ng/mL
[1]; CBG 30 mg/kg oral gavage once, 2 hr post Rx
  CBG concentration in rat plasma (Day 1): BLQ (Below Limit of Quantification (2.5 ng/mL)) (2×) and 11.0 ng/mL and 26.6 ng/mL and 78.6 ng/mL and 36.0 ng/mL
[1]; CBG 30 mg/kg oral gavage once, 4 hr post Rx
  CBG concentration in rat plasma (Day 1): 24.5 ng/mL and BLQ (Below Limit of Quantification (2.5 ng/mL)) (2×) and 54.3 ng/mL and 62.1 ng/mL and 48.3 ng/mL
[1]; CBG 30 mg/kg oral gavage once, 8 hr post Rx
  CBG concentration in rat plasma (Day 1): BLQ (Below Limit of Quantification (2.5 ng/mL))
[1]; CBG 30 mg/kg oral gavage once, 24 hr post Rx
  CBG concentration in rat plasma (Day 1): BLQ (Below Limit of Quantification (2.5 ng/mL)) (5×) and 2.75 ng/mL
[1]; CBG 100 mg/kg oral gavage once daily, 15 min post Rx
  CBG concentration in rat plasma (Day 21): BLQ (Below Limit of Quantification (2.5 ng/mL)) (4×) and 41.6 ng/mL
[1]; CBG 100 mg/kg oral gavage once daily, 30 min post Rx
  CBG concentration in rat plasma (Day 21): BLQ (Below Limit of Quantification (2.5 ng/mL)) (3×) and 178.5 ng/mL and 122.5 ng/mL
[1]; CBG 100 mg/kg oral gavage once daily, 1 hr post Rx
  CBG concentration in rat plasma (Day 21): BLQ (Below Limit of Quantification (2.5 ng/mL)) (3×) and 225.5 ng/mL and 206.0 ng/mL
[1]; CBG 100 mg/kg oral gavage once daily, 2 hr post Rx
  CBG concentration in rat plasma (Day 21): 307.0 ng/mL and 201.0 ng/mL and 278.0 ng/mL and BLQ (Below Limit of Quantification (2.5 ng/mL)) and 275.5 ng/mL
[1]; CBG 100 mg/kg oral gavage once daily, 4 hr post Rx
  CBG concentration in rat plasma (Day 21): BLQ (Below Limit of Quantification (2.5 ng/mL)) and 171.0 ng/mL and 129.5 ng/mL and 185.0 ng/mL and 905.0 ng/mL and 417.0 ng/mL
[1]; CBG 100 mg/kg oral gavage once daily, 8 hr post Rx
  CBG concentration in rat plasma (Day 21): BLQ (Below Limit of Quantification (2.5 ng/mL)) (2×) and 215.0 ng/mL and 905.0 ng/mL and 3095.0 ng/mL and 373.0 ng/mL
[1]; CBG 100 mg/kg oral gavage once daily, 24 hr post Rx
  CBG concentration in rat plasma (Day 21): BLQ (Below Limit of Quantification (2.5 ng/mL))
[1]; CBG 100 mg/kg oral gavage once daily, female rats
  CBG concentration in rat brain tissue (Day 21), Average: 299.27 ng/g
[1]; CBG 100 mg/kg oral gavage once daily
  CBG concentration in rat brain tissue (Day 21): 53.0 ng/g and 108.0 ng/g and 1460.0 ng/g and 271.0 ng/g and 580.0 ng/g and 46.8 ng/g
[1]; CBG 100 mg/kg oral gavage once daily, male rats
  CBG concentration in rat brain tissue (Day 21), Average: 540.33 ng/g
[1]; CBG 100 mg/kg oral gavage once, 15 min post Rx
  CBG concentration in rat plasma (Day 1): BLQ (Below Limit of Quantification (2.5 ng/mL))
[1]; CBG 100 mg/kg oral gavage once, 30 min post Rx
  CBG concentration in rat plasma (Day 1): BLQ (Below Limit of Quantification (2.5 ng/mL))
[1]; CBG 100 mg/kg oral gavage once, 1 hr post Rx
  CBG concentration in rat plasma (Day 1): BLQ (Below Limit of Quantification (2.5 ng/mL))
[1]; CBG 100 mg/kg oral gavage once, 2 hr post Rx
  CBG concentration in rat plasma (Day 1): BLQ (Below Limit of Quantification (2.5 ng/mL))
[1]; CBG 100 mg/kg oral gavage once, 4 hr post Rx
  CBG concentration in rat plasma (Day 1): BLQ (Below Limit of Quantification (2.5 ng/mL)) (4×) and 119.0 ng/mL and 143.0 ng/mL
[1]; CBG 100 mg/kg oral gavage once, 8 hr post Rx
  CBG concentration in rat plasma (Day 1): BLQ (Below Limit of Quantification (2.5 ng/mL))
[1]; CBG 100 mg/kg oral gavage once, 24 hr post Rx
  CBG concentration in rat plasma (Day 1): BLQ (Below Limit of Quantification (2.5 ng/mL))
[1]; oral gavage 10-100 mg/kg, Day 1 and Day 21
  concentration of CBG in plasma (in words): low or below the level of quantitation (BLQ)
[1]; oral gavage, Day 21
  CBG in brain (in words): not detected
[1]; upon oral administration
  first pass metabolism to the glucuronide (in words): very high
[2]
  metabolites observed (number): Seven
[3]
  metabolites observed (number): eight
